The source of these data is ChEMBL document CHEMBL1126897, “Tyrphostins. 3. Structure-activity relationship studies of alpha-substituted benzylidenemalononitrile 5-S-aryltyrphostins” (J Med Chem, 1993).

Each structure is given as a SMILES string.

T1 sequence (P00533 whole entry): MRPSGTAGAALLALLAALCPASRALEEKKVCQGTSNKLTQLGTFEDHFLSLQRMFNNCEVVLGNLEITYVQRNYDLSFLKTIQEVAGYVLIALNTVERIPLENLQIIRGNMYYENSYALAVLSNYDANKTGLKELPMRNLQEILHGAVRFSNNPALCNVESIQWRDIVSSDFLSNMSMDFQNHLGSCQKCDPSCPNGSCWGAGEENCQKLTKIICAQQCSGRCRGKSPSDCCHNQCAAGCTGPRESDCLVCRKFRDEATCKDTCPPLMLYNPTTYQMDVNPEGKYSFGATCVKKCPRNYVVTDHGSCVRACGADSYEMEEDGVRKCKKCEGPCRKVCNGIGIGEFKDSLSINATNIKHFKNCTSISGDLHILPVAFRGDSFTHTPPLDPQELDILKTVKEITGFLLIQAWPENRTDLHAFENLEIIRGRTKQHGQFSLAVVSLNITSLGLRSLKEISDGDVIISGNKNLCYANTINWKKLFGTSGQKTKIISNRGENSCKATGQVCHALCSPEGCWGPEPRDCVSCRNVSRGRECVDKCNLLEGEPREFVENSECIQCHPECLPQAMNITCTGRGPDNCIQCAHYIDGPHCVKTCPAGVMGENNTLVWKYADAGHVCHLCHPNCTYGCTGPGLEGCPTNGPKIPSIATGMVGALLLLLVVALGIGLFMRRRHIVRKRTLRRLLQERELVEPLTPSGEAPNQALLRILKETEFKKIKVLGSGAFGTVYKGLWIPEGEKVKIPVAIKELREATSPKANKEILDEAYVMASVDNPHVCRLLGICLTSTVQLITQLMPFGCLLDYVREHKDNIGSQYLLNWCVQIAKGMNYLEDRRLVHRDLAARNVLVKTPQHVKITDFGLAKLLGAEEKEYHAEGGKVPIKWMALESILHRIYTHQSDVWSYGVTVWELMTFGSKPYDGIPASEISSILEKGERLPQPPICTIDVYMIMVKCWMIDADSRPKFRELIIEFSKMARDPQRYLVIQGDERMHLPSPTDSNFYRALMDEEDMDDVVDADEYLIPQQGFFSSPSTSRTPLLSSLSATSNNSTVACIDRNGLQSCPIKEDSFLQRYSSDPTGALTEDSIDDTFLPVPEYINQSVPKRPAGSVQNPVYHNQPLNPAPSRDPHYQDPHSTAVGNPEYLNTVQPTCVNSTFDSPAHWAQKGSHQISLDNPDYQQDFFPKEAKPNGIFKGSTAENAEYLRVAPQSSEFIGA

One assay concerns the target T1, Epidermal growth factor receptor (Homo sapiens, UniProt P00533). The assay can be described thus: Inhibitory concentration against EGF receptor by autophosphorylation.
For the compound `COc1cc(/C=C(\C#N)C(N)=O)cc(CSc2nc3cc(Cl)ccc3s2)c1O`, the IC50 (as a rule, the concentration needed to halve the response being measured) was above 83 µM.
Same read-out and setting: to `COc1cc(/C=C(\C#N)C(N)=O)cc(CSc2ccccc2NC(C)=O)c1O` belongs 22 µM; to `Cc1cc(C=C(C#N)C#N)cc(O)c1O`, 62 µM.
Still for that read-out and setting: under `COc1cc(/C=C(\C#N)C(=O)c2ccc(O)c(O)c2)cc(CSCc2ccccc2)c1O` stands 4.5 µM; under `COc1cc(/C=C(\C#N)C(N)=O)cc(CSc2ccccc2)c1O`, 0.4 µM.
`CCOc1ccc2nc(SCc3cc(/C=C(\C#N)C(N)=O)cc(OC)c3O)sc2c1` had an IC50 above 167 µM.
The same measure, in the same setting: under `COc1cc(/C=C(\C#N)C(N)=O)cc(CSc2nc3ccccc3o2)c1O` stands 5.3 µM; under `COc1cc(C=C(C#N)C#N)cc(CSc2ccccc2C(=O)O)c1O`, 8 µM; under `COc1cc(/C=C(\C#N)C(N)=O)cc(CSc2ccccn2)c1O`, 3.4 µM.
On the same count and under the same terms, to `COc1cc(/C=C(\C#N)C(N)=O)cc(CSCc2ccc(Cl)cc2)c1O` belongs 16 µM.
Still for that read-out and setting: to `COc1cc(/C=C(\C#N)C(N)=O)cc(CSc2ccccc2C(=O)O)c1O` belongs 0.71 µM.
The compound `COc1cc(C=C(C#N)C#N)cc(C)c1O` gave an IC50 of 87 µM.
Still for that read-out and setting: to `COc1cc(C=C(C#N)C#N)cc(CSCC(=O)O)c1O` belongs 54 µM.
For `COc1cc(C=C(C#N)C#N)cc(CSc2ccccc2)c1O`, it took 6.7 µM to reach half-maximal inhibition (IC50).
Same read-out and setting: to `COc1cc(/C=C(\C#N)C(N)=O)cc(CSCc2ccccc2Cl)c1O` belongs 1 µM; to `COc1cc(/C=C(\C#N)C(N)=O)cc(CSCc2ccccc2)c1O`, 0.9 µM; to `COc1cc(/C=C(\C#N)C(N)=O)cc(CSc2ccc3ccccc3c2)c1O`, 1.7 µM.
The same measure, in the same setting: to `COc1cc(/C=C(\C#N)C(N)=O)cc(CSc2nc3ccccc3[nH]2)c1O` belongs 14.5 µM.
Take `N#C/C(=C\c1cc(O)c(O)c(CSc2nc3ccccc3s2)c1)C(N)=O`: the IC50 came out at 3.2 µM.
The same measure, in the same setting: to `COc1cc(C=C(C#N)C#N)cc(CS(=O)(=O)c2ccc(C)cc2)c1O` belongs 23 µM.
Still for that read-out and setting: under `COc1cc(/C=C(\C#N)C(N)=O)cc(CSc2ccc(O)cc2)c1O` stands 2.5 µM; under `N#C/C(=C\c1cc(O)c(O)c(CSCc2ccccc2)c1)C(N)=O`, 0.64 µM.

Another assay addresses T1, Epidermal growth factor receptor. The experiment in a line: Inhibitory concentration against EGF receptor by polyGAT phosphorylation.
The compound `COc1cc(/C=C(\C#N)C(N)=O)cc(CSc2nc3cc(Cl)ccc3s2)c1O` yielded an IC50 of 4.4 µM.
Still for that read-out and setting: under `COc1cc(/C=C(\C#N)C(N)=O)cc(CSc2ccccc2NC(C)=O)c1O` stands 5.6 µM.
Same read-out and setting: under `Cc1cc(C=C(C#N)C#N)cc(O)c1O` stands 5.6 µM; under `COc1cc(/C=C(\C#N)C(=O)c2ccc(O)c(O)c2)cc(CSCc2ccccc2)c1O`, 0.75 µM.
Same read-out and setting: to `COc1cc(/C=C(\C#N)C(N)=O)cc(CSc2ccccc2)c1O` belongs 2.9 µM; to `COc1cc(/C=C(\C#N)C(N)=O)cc(CSc2nc3ccccc3o2)c1O`, 12.5 µM; to `COc1cc(C=C(C#N)C#N)cc(CSc2ccccc2C(=O)O)c1O`, 36 µM.
Take `COc1cc(/C=C(\C#N)C(N)=O)cc(CSc2ccccn2)c1O`: inhibition was half-maximal at 25 µM (IC50).
Turning to `COc1cc(/C=C(\C#N)C(N)=O)cc(CSCc2ccc(Cl)cc2)c1O`, the midpoint of inhibition, the IC50, lay at 14.8 µM.
The same measure, in the same setting: to `COc1cc(/C=C(\C#N)C(N)=O)cc(CSc2ccccc2C(=O)O)c1O` belongs 37 µM; to `COc1cc(C=C(C#N)C#N)cc(C)c1O`, 2600 µM.
Regarding `COc1cc(C=C(C#N)C#N)cc(CSCC(=O)O)c1O`, inhibition was half-maximal at 96 µM (IC50).
On the same count and under the same terms, under `COc1cc(C=C(C#N)C#N)cc(CSc2ccccc2)c1O` stands 370 µM; under `COc1cc(/C=C(\C#N)C(N)=O)cc(CSCc2ccccc2Cl)c1O`, 2.5 µM; under `COc1cc(/C=C(\C#N)C(N)=O)cc(CSCc2ccccc2)c1O`, 1.95 µM.
On to `COc1cc(/C=C(\C#N)C(N)=O)cc(CSc2ccc3ccccc3c2)c1O`, for which the IC50 was found to be 6.6 µM.
The compound `COc1cc(/C=C(\C#N)C(N)=O)cc(CSc2nc3ccccc3[nH]2)c1O` came in with an IC50 of 75 µM.
Take `N#C/C(=C\c1cc(O)c(O)c(CSc2nc3ccccc3s2)c1)C(N)=O`: inhibition was half-maximal at 6.5 µM (IC50).
The same measure, in the same setting: to `COc1cc(C=C(C#N)C#N)cc(CS(=O)(=O)c2ccc(C)cc2)c1O` belongs 85 µM; to `COc1cc(/C=C(\C#N)C(N)=O)cc(CSc2ccc(O)cc2)c1O`, 2.5 µM; to `N#C/C(=C\c1cc(O)c(O)c(CSCc2ccccc2)c1)C(N)=O`, 0.94 µM.

The next assay has the same target. The experiment in a line: Inhibition of polyGAT phosphorylation by EGF receptor.
`CCOc1ccc2nc(SCc3cc(/C=C(\C#N)C(N)=O)cc(OC)c3O)sc2c1`: the half-inhibitory concentration (IC50) was above 100 µM.
On the same count and under the same terms, under `COc1cc(/C=C(\C#N)C(N)=O)cc(CSCCC(=O)O)c1O` stands 125 µM.
